According to patent US8298782B2, “Reversible MHC multimer staining for functional purification of antigen-specific T cells” (priority 2000, dated 2012):

Assays:
[1] = test system: LLO91-99-specific T cells; assay: MHC tetramer staining, TCR expression, annexin V binding and immunofluorescence of T cells; assay type: cell-based
Experimental: (§1) FIG. 3: Interference of MHC multimer staining with T cell function in vitro. (a) LLO91-99-specific T cells were stained for 2 hours with binding (LLO91-99/H2-K^d) or non-binding (p60217-225/H2-K^d) streptavidin-PE tetramer (“tet”) reagents at 4° C. or 37° C. MHC tetramer staining (upper), TCR expression (middle, filled black graph hidden behind TCR^high populations), and annexin V binding (lower) are shown in histogram format. (b) Immunofluorescence staining of LLO91-99-specific T cells one hour after incubation with LLO91-99/H2-K^d streptavidin-Alexa546 tetramers (red) at 4° C. or 37° C. (c) LLO91-99-specific T cells stained for 30 min with binding or non-binding tetramer reagents at 4° C., were then washed to remove unbound reagent and transferred to a chromium release assay (effector to target ratio approx. 5:1). LLO91-99 peptide concentration and percent specific lysis are shown on the x- and y-axes, respectively. The bars indicate lysis of MHC mismatched target cells (10^−8 M LLO91-99 peptide and no peptide conditions only) by effector cells treated with non-binding MHC tetramer reagents (filled bars) or binding reagents (open bars). (d) LLO91-99-specific T cells were treated as in (c), transferred into a proliferation assay in the presence of syngeneic irradiated splenocytes, and stimulated in the presence of peptide or various mitogens (x-axis).
LLO91-99 specific T cell lines were expanded in vitro as described before (18). MHC-multimer staining was performed by incubation of approximately 2 μg H2-K^d Strep-tag® II peptide multimer reagent (IBA GmbH) per 1×10^6 cells at 4° C. for 30 min. For epitope-tag staining cells were washed, fixed briefly in 1% paraformaldehyde, and subsequently stained for anti-HSV tag using an unconjugated primary mouse or rat mAb (e.g. TB067, Novagen) and a secondary anti-mouse or anti-rat-PE antibody (e.g. A85-1, PharMingen). Flow cytometry was performed using a FACSCalibur (Becton Dickinson) and FlowJo software. […] Conventional ^51Cr-release and ^3H-thymidine incorporation assays were performed as described before (18).
Phenotypic changes of cell populations have not been reported so far following epitope-specific T cell staining at low temperatures (4° C.). Under these conditions, TCR-MHC mediated signalling events become not activated. MHC multimer staining at higher temperatures (e.g. at room temperature (RT), or at 37° C.) has been performed to improve the intensity and/or stabilty of the fluorescent signal through epitope-specific internalization of the multimer. In order to analyze the impact of differential treatment of T cells on their phenotype, we compared LLO91-99-specific T cell lines following staining with LLO91-99/H2-K^d tetramers at 4° C. or 37° C. As a negative control, MHC tetramers containing different Listeria epitope ([…]) were used; these reagents cannot bind to TCRs of LLO91-99-specific T cells, thus controlling for potential peptide-independent effects.

[2] = test system: LLO91-99-specific T cells; assay: 51Cr-release cytotoxicity assay of multimer-treated CTLs; assay type: cell-based
Experimental: as §1
FIG. 7: Reversible MHC multimer staining and T cell function. LLO91-99-specific T cells were stained for 30 min with binding LLO91-99/H2-K^d Strep-tag® II peptide/β2m-Strep-tag® II peptide-HSV-tag:Strep-Tactin® polypeptide (IBA GmbH) or non-binding (p60217-225/H2-K^d) multimer reagents and then extensively washed over 4 h in the presence or absence or d-biotin (1 mM, all done at 4° C.) prior to assays or adoptive transfer. (a) Staining for recombinant MHC-molecules (detected by epitope-tag staining, x-axis) on differently treated T cells. […] Numbers of viable bacteria (y-axis) were determined 48 h following Lysteria infection. […]

Listeria monocytogenes = assay: adoptive transfer of multimer-treated T cells, protection against Listeria infection; assay type: in vivo, BALB/c mice
From the text: Six hours later, mice were infected with 2×10^4 Listeria monocytogenes. […] Control mice received NaCl only.
(a) Staining for recombinant MHC-molecules (detected by epitope-tag staining, x-axis) on differently treated T cells. (b) Cytotoxicity (% specific lysis, y-axis) of differently treated T cells in response to LLO91-99 peptide-coated target cells (peptide titration, x-axis) with an effector to target cell ratio of approx. 5:1, compare with FIG. 1c. (c) Proliferation (y-axis) of differently treated T cells stimulated with epitope or various mitogens (indicated on the x-axis) in the presence of syngeneic irradiated splenocytes. Compare with FIG. 1d. (d) Protection against Lysteria monocytogenes infection following adoptive transfer of 4.1×10^6 LLO91-99-specific T cells treated with binding (LLO91-99) or non-binding (p60217-225) MHC multimer reagents (indicated to the left). […] Numbers of viable bacteria (y-axis) were determined 48 h following Lysteria infection. Data are representative of three independent experiments, each with 2 mice per group.
LLO91-99 specific T cells were stained with H2-K^d Strep-tag® II peptide multimer reagents (IBA GmbH) at 4° C. […] Adoptive cell transfer was performed by injection of 1×10^7 cells—per mouse per group—into the tail vein of naive BALB/c mice.

[3] = test system: LLO91-99-specific T cells; assay: 3H-thymidine incorporation proliferation assay of multimer-treated T cells; assay type: cell-based; settings: reagent remains on the cell surface
Experimental: FIG. 3: Interference of MHC multimer staining with T cell function in vitro. (a) LLO91-99-specific T cells were stained for 2 hours with binding (LLO91-99/H2-K^d) or non-binding (p60217-225/H2-K^d) streptavidin-PE tetramer (“tet”) reagents at 4° C. or 37° C. MHC tetramer staining (upper), TCR expression (middle, filled black graph hidden behind TCR^high populations), and annexin V binding (lower) are shown in histogram format. (b) Immunofluorescence staining of LLO91-99-specific T cells one hour after incubation with LLO91-99/H2-K^d streptavidin-Alexa546 tetramers (red) at 4° C. or 37° C. (c) LLO91-99-specific T cells stained for 30 min with binding or non-binding tetramer reagents at 4° C., were then washed to remove unbound reagent and transferred to a chromium release assay (effector to target ratio approx. 5:1). LLO91-99 peptide concentration and percent specific lysis are shown on the x- and y-axes, respectively. […]
FIG. 7: Reversible MHC multimer staining and T cell function. […] (a) Staining for recombinant MHC-molecules (detected by epitope-tag staining, x-axis) on differently treated T cells. […] Numbers of viable bacteria (y-axis) were determined 48 h following Lysteria infection. […]

[4] = biological target: T1, Strep-Tactin® polypeptide (mutated streptavidin) (Streptomyces avidinii, UniProt P22629, E68V/S69T/V71R); settings: read-out: Kd of Strep-tag II peptide with Strep-Tactin; cited from earlier work
T1 construct: literature IBA GmbH
T1 sequence (P22629 38-163 E68V/S69T/V71R): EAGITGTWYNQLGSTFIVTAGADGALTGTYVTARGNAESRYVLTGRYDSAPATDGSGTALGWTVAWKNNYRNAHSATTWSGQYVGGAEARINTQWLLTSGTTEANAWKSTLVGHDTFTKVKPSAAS

| Substance | MHC tetramer staining ([1]; 2 h incubation at 4° C.) | MHC tetramer staining ([1]; 2 h incubation at 37° C.) | annexin V binding (early marker of apoptosis) ([1]; after staining at 37° C.) | surface TCR expression ([1]; after staining at 37° C.) | immunofluorescence microscopy staining pattern ([1]; incubation at 4° C.) | immunofluorescence microscopy staining pattern ([1]; incubation at 37° C.) | lysis in the absence of peptide (spontaneous/bystander lysis) ([2]; reagent not dissociated) | maximum % specific lysis ([2]; stained CTLs washed, then 37° C., constant effector to target ratio) | peptide sensitivity of cytotoxicity ([2]; various concentrations of LLO91-99 peptide) | protection against Listeria infection following adoptive transfer (Listeria monocytogenes; 4.1×10^6 cells, reagent not dissociated) | LLO91-99-specific T cells recovered from recipient mice after transfer (Listeria monocytogenes; compared to control cells) | protection against Listeria infection (viable bacteria in spleen 48 h) (Listeria monocytogenes; transfer of 1×10^6 treated CTLs) | protection against Listeria infection (viable bacteria in spleen 48 h) (Listeria monocytogenes; transfer of 1×10^7 treated CTLs, listed as LLO91-99/H2-K^d tetramer reagents) | protection against Listeria infection (viable bacteria in spleen 48 h) (Listeria monocytogenes; transfer of 1×10^7 treated CTLs, listed as binding MHC tetramers) | proliferation in response to antigen or mitogenic stimulation [3] | Kd [4] |
| --- | --- | --- | --- | --- | --- | --- | --- | --- | --- | --- | --- | --- | --- | --- | --- | --- |
| LLO91-99/H2-K^d tetramers: conventional tetramers of H2-K^d/LLO91-99 complexes with PE- or Alexa546-conjugated streptavidin | high intensity staining | reduced and more diffuse staining pattern | increased binding of annexin V | substantial downregulation of surface TCR | typical surface-staining pattern | most multimers are internalized | increased lysis in the absence of LLO91-99 peptide addition | reduction in maximum % specific lysis | decreased peptide sensitivity | significantly reduced protection | much lower numbers | indistinguishable from untreated mice | dramatic loss of protective capacity | still confer some significant Listeria-specific protection | poorly proliferate |  |
| WSHPQFEK [Strep-tag® II peptide] |  |  |  |  |  |  |  |  |  |  |  |  |  |  |  | ~1000 nM |
